Laboratory results as given in patent US9693556B2, “Herbicidal pyridazinone derivatives” (SYNGENTA LIMITED, priority 2011, dated 2017).

What was measured:
Type in all cases: in vivo
[1] = system: Alopecurus myosuroides (ALOMY); experiment: Pre-emergence herbicidal glasshouse test on Alopecurus myosuroides; conditions: pre-emergence; 1000 g/h; evaluated after 13 days
Summary of the method: (§1)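 Herbicidal damage was rated 13 days after treatment on a five-point scale, where 5 denotes 80-100% and 1 denotes 0-19% damage. Spraying at 1000 g/h followed sowing by one day (pre-emergence) or eight days (post-emergence).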

Setaria faberi (SETFA) [2] = experiment: Pre-emergence herbicidal glasshouse test on Setaria faberi; conditions: pre-emergence; 1000 g/h; evaluated after 13 days
Summary of the method: as §1

[3] = system: Echinochloa crus-galli (ECHCG); experiment: Pre-emergence herbicidal glasshouse test on Echinochloa crus-galli; conditions: pre-emergence; 1000 g/h; evaluated after 13 days
Summary of the method: as §1

Solanum nigrum (SOLNI) [4] = experiment: Pre-emergence herbicidal glasshouse test on Solanum nigrum; conditions: pre-emergence; 1000 g/h; evaluated after 13 days
Summary of the method: as §1

[5] = system: Amaranthus retoflexus (AMARE); experiment: Pre-emergence herbicidal glasshouse test on Amaranthus retoflexus; conditions: pre-emergence; 1000 g/h; evaluated after 13 days
Summary of the method: as §1

[6] = system: Ipomoea hederacea (IPOHE); experiment: Pre-emergence herbicidal glasshouse test on Ipomoea hederacea; conditions: pre-emergence; 1000 g/h; evaluated after 13 days
Summary of the method: as §1

[7] = system: Alopecurus myosuroides (ALOMY); experiment: Post-emergence herbicidal glasshouse test on Alopecurus myosuroides; conditions: post-emergence; 1000 g/h; evaluated after 13 days
Summary of the method: as §1

Setaria faberi (SETFA) [8] = experiment: Post-emergence herbicidal glasshouse test on Setaria faberi; conditions: post-emergence; 1000 g/h; evaluated after 13 days
Summary of the method: as §1

[9] = system: Echinochloa crus-galli (ECHCG); experiment: Post-emergence herbicidal glasshouse test on Echinochloa crus-galli; conditions: post-emergence; 1000 g/h; evaluated after 13 days
Summary of the method: as §1

Solanum nigrum (SOLNI) [10] = experiment: Post-emergence herbicidal glasshouse test on Solanum nigrum; conditions: post-emergence; 1000 g/h; evaluated after 13 days
Summary of the method: as §1

[11] = system: Amaranthus retoflexus (AMARE); experiment: Post-emergence herbicidal glasshouse test on Amaranthus retoflexus; conditions: post-emergence; 1000 g/h; evaluated after 13 days
Summary of the method: as §1

[12] = system: Ipomoea hederacea (IPOHE); experiment: Post-emergence herbicidal glasshouse test on Ipomoea hederacea; conditions: post-emergence; 1000 g/h; evaluated after 13 days
Summary of the method: as §1

SMILES	PRE Application ALOMY herbicidal damage (five point scale) [1]	PRE Application SETFA herbicidal damage (five point scale) (Setaria faberi (SETFA) [2])	PRE Application ECHCG herbicidal damage (five point scale) [3]	PRE Application SOLNI herbicidal damage (five point scale) (Solanum nigrum (SOLNI) [4])	PRE Application AMARE herbicidal damage (five point scale) [5]	PRE Application IPOHE herbicidal damage (five point scale) [6]	POST Application ALOMY herbicidal damage (five point scale) [7]	POST Application SETFA herbicidal damage (five point scale) (Setaria faberi (SETFA) [8])	POST Application ECHCG herbicidal damage (five point scale) [9]	POST Application SOLNI herbicidal damage (five point scale) (Solanum nigrum (SOLNI) [10])	POST Application AMARE herbicidal damage (five point scale) [11]	POST Application IPOHE herbicidal damage (five point scale) [12]
Cn1ncc(-c2ccccc2[S+](C)[O-])c(O)c1=O (stereo not drawn) [Compound 1.036]	3 (3=40-59% damage)	2 (2=20-39% damage)	2 (2=20-39% damage)	1 (1=0-19% damage)	3 (3=40-59% damage)	1 (1=0-19% damage)	5 (5=80-100% damage)	5 (5=80-100% damage)	5 (5=80-100% damage)	5 (5=80-100% damage)	5 (5=80-100% damage)	5 (5=80-100% damage)
Cn1ncc(-c2ccc(OCC(F)(F)F)cc2S(C)(=O)=O)c(O)c1=O [Compound 2.030]	5 (5=80-100% damage)	5 (5=80-100% damage)	5 (5=80-100% damage)	5 (5=80-100% damage)	5 (5=80-100% damage)	4 (4=60-79% damage)	5 (5=80-100% damage)	5 (5=80-100% damage)	5 (5=80-100% damage)	5 (5=80-100% damage)	5 (5=80-100% damage)	5 (5=80-100% damage)
Cn1ncc(-c2cc(C(F)(F)F)ccc2F)c(O)c1=O [Compound 1.096]	1 (1=0-19% damage)	1 (1=0-19% damage)	1 (1=0-19% damage)	1 (1=0-19% damage)	1 (1=0-19% damage)	1 (1=0-19% damage)	1 (1=0-19% damage)	1 (1=0-19% damage)	1 (1=0-19% damage)	1 (1=0-19% damage)	1 (1=0-19% damage)	2 (2=20-39% damage)
Cn1ncc(-c2ccccc2C#N)c(O)c1=O [Compound 1.022]	1 (1=0-19% damage)	1 (1=0-19% damage)	1 (1=0-19% damage)	1 (1=0-19% damage)	1 (1=0-19% damage)	1 (1=0-19% damage)	1 (1=0-19% damage)	1 (1=0-19% damage)	1 (1=0-19% damage)	3 (3=40-59% damage)	2 (2=20-39% damage)	1 (1=0-19% damage)
Cn1ncc(-n2ccc(C(F)(F)F)c(N3CCOCC3)c2=O)c(O)c1=O [Compound 1.026]	5 (5=80-100% damage)	5 (5=80-100% damage)	5 (5=80-100% damage)	5 (5=80-100% damage)	5 (5=80-100% damage)	5 (5=80-100% damage)	5 (5=80-100% damage)	5 (5=80-100% damage)	5 (5=80-100% damage)	5 (5=80-100% damage)	5 (5=80-100% damage)	5 (5=80-100% damage)
Cn1nc([N+](=O)[O-])c(-c2ccc(C(F)(F)F)cc2S(C)(=O)=O)c(O)c1=O [Compound 2.022]	5 (5=80-100% damage)	4 (4=60-79% damage)	5 (5=80-100% damage)	5 (5=80-100% damage)	5 (5=80-100% damage)	5 (5=80-100% damage)	5 (5=80-100% damage)	5 (5=80-100% damage)	5 (5=80-100% damage)	5 (5=80-100% damage)	5 (5=80-100% damage)	5 (5=80-100% damage)
Cn1ncc(-c2cccn(-c3cccc([N+](=O)[O-])c3)c2=O)c(O)c1=O [Compound 1.147]	1 (1=0-19% damage)	2 (2=20-39% damage)	1 (1=0-19% damage)	1 (1=0-19% damage)	2 (2=20-39% damage)	1 (1=0-19% damage)	1 (1=0-19% damage)	1 (1=0-19% damage)	1 (1=0-19% damage)	3 (3=40-59% damage)	1 (1=0-19% damage)	1 (1=0-19% damage)
Cn1ncc(-c2cccnc2OCC(F)F)c(O)c1=O [Compound 4.011]	1 (1=0-19% damage)	1 (1=0-19% damage)	1 (1=0-19% damage)	1 (1=0-19% damage)	1 (1=0-19% damage)	1 (1=0-19% damage)	1 (1=0-19% damage)	1 (1=0-19% damage)	1 (1=0-19% damage)	5 (5=80-100% damage)	4 (4=60-79% damage)	3 (3=40-59% damage)
CS(=O)(=O)c1ccc(-c2cn[nH]c(=O)c2O)c(Cl)c1C1=NOCC1 [Compound 2.055]	2 (2=20-39% damage)	1 (1=0-19% damage)	2 (2=20-39% damage)	2 (2=20-39% damage)	4 (4=60-79% damage)	1 (1=0-19% damage)	3 (3=40-59% damage)	5 (5=80-100% damage)	5 (5=80-100% damage)	5 (5=80-100% damage)	5 (5=80-100% damage)	3 (3=40-59% damage)
C=CCn1cccc(-c2cnn(C)c(=O)c2O)c1=O [Compound 9.002]	1 (1=0-19% damage)	1 (1=0-19% damage)	1 (1=0-19% damage)	1 (1=0-19% damage)	1 (1=0-19% damage)	1 (1=0-19% damage)	1 (1=0-19% damage)	2 (2=20-39% damage)	2 (2=20-39% damage)	5 (5=80-100% damage)	4 (4=60-79% damage)	2 (2=20-39% damage)
